Patent publication US5059590A, “Imidazole derivatives, process for production thereof, and use thereof” (Yamasa Shoyu Kabushiki Kaisha, priority 1988, dated 1991)
≈ marks a conversion by molar mass, not a printed value.

Experiments:
[1] = system: KB; assay: In vitro anti-proliferative activity against human tumor cell lines (KB); format: cell-based; conditions: Nasopharyngeal carcinoma, 72 hours
Method: (§1) In vitro anti-proliferative activity against human tumor cell lines
(§2) Test Compound: 5-ethynyl-1-β-D-ribofuranosylimidazole-4-carboxamide
(§3) A variety of human tumor cell lines are suspended in media specified according to the species of the cell lines to predetermined cell concentrations as shown in the following Table.
(§4) 1 ml of the resulting cell suspension is seeded into each well of a 24 multi-well plate and incubated in a 5% CO2 -incubator at 37° C. for 24 hours. The culture medium is then replaced by a medium containing no test compound or by an appropriate amount of a serially diluted test compound solution. […] The number of the cells in each well is counted with a Coulter counter (Model ZB, Coulter Electronics), and the growth inhibition percent (%) of the cells at each concentration of a test compound is determined by the following equation: [formula] Tx: Number of the cells in a well containing a test compound as counted upon completion of the incubation (cells/ml) […] Cx: Number of the cells in a well containing no test compound as counted upon completion of the incubation (cells/ml)
(§5) Co: Number of the cells in a well containing no test compound as counted at the initiation of the incubation (cells/ml) […]

[2] = system: sarcoma 180; assay: In vivo antitumor activity against sarcoma 180 intracutaneously implanted into BALB/c mice; parameters: species or system mouse; key to Tumor growth rate (Rt): R = tumor volume at time / tumor volume on day 8 (A/A8); conditions: for antitumor activity: i.v.
Method: In vivo antitumor activity against sarcoma 180 intracutaneously implanted into BALB/c mice
Three million (3×10^6) Sarcoma 180 cells are intracutaneously implanted at the ventral site of BALB/c mice (male, 5 weeks old). Eight days after the implantation when the tumor volume reached 200 to 300 mm^3, the mice are divided into groups (6 mice/group), and the treatment with a test drug was started. The test drug is dissolved in distilled water and intravenously administered to the mice at a rate of 0.1 ml per 10 g of the body weight thereof. In accordance with two different schedules, 5-ethynyl01β-D-ribofuranosylimidazole-4-carboxamide is administered once or three times, i.e., once at a dose of 250 mg/kg on day 8 (single-dose group) or three times at a dose of 125 mg/kg on days 8, 12 and 16 (multiple-dose group).
Each mouse is weighed, and the width (a mm) and length (b mm) of the tumor thereof are measured twice a week to determine the tumor volume (A mm^3) from the following equation: […]
Subsequently, the tumor growth rate (R) is determined as follows on the basis of the tumor volume (A8) on day 8 after the implantation of the tumor cells :
R: Tumor growth rate after a predetermined period from the tumor implantation
A: Tumor volume after a predetermined period from the tumor implantation
A8 : Tumor volume as determided 8 days after the tumor implantation
T/C(%) is further obtained from the following equation by comparison between the tumor growth rate in the test group (Rt) and that in the control group (Rc):
Single-dose group: 250 mg/kg of the drug was intravenously administered o
day 8 after the tumor implantation.
Multipledose group: 125 mg/kg of the drug was intravenously administered
on days 8, 12 and 16 after the tumor implantation.

[3] = system: HEp-2; assay: In vitro anti-proliferative activity against human tumor cell lines (HEp-2); format: cell-based; conditions: HEp-2, Laryngeal carcinoma, 72 hours
Method: as §1, §2, §3, §4, §5

[4] = system: KU-2; assay: In vitro anti-proliferative activity against human tumor cell lines (KU-2); format: cell-based; conditions: KU-2, Renal cell carcinoma, 72 hours
Method: as §1, §2, §3, §4, §5

[5] = system: MG-63; assay: In vitro anti-proliferative activity against human tumor cell lines (MG-63); format: cell-based; conditions: MG-63, Osteogenic sarcoma, 72 hours
Method: as §1, §2, §3, §4, §5

[6] = system: T24; assay: In vitro anti-proliferative activity against human tumor cell lines (T24); format: cell-based; conditions: T-24, T24, Bladder trasitional-cell carcinoma, 72 hours
Method: as §1, §2, §3, §4, §5

[7] = multiple-dose group, 125 mg/kg i.v. days 8, 12, 16, day 8 after implantation
[8] = multiple-dose group, 125 mg/kg i.v. days 8, 12, 16, day 12
[9] = multiple-dose group, 125 mg/kg i.v. days 8, 12, 16, day 15, * = P < 0.05 vs control
[10] = multiple-dose group, 125 mg/kg i.v. days 8, 12, 16, day 19, * = P < 0.05 vs control
[11] = multiple-dose group, 125 mg/kg i.v. days 8, 12, 16, day 22, * = P < 0.05 vs control
[12] = multiple-dose group, 125 mg/kg i.v. days 8, 12, 16, day 26, * = P < 0.05 vs control
[13] = multiple-dose group, 125 mg/kg i.v. days 8, 12, 16, day 29, * = P < 0.05 vs control
[14] = multiple-dose group, 125 mg/kg i.v. days 8, 12, 16, day 33
[15] = single-dose group, 250 mg/kg i.v. day 8, day 8 after implantation
[16] = single-dose group, 250 mg/kg i.v. day 8, day 12, * = P < 0.05 vs control
[17] = single-dose group, 250 mg/kg i.v. day 8, day 15, * = P < 0.05 vs control
[18] = single-dose group, 250 mg/kg i.v. day 8, day 19, * = P < 0.05 vs control
[19] = single-dose group, 250 mg/kg i.v. day 8, day 22, * = P < 0.05 vs control
[20] = single-dose group, 250 mg/kg i.v. day 8, day 26, * = P < 0.05 vs control
[21] = single-dose group, 250 mg/kg i.v. day 8, day 29, * = P < 0.05 vs control
[22] = single-dose group, 250 mg/kg i.v. day 8, day 33, * = P < 0.05 vs control

IC50 [1]: 0.33 mg/L (≈ 1.23 µM)
IC50 [3]: 0.47 mg/L (≈ 1.76 µM)
IC50 [4]: < 0.1 mg/L
IC50 [5]: 0.38 mg/L (≈ 1.42 µM)
IC50 [6]: 0.37 mg/L (≈ 1.38 µM)
Compound: C#Cc1c(C(N)=O)ncn1[C@@H]1O[C@H](CO)[C@@H](O)[C@H]1O [5-ethynyl-1-β-D-ribofuranosylimidazole-4-carboxamide]
antitumor activity ([2]; 125 mg/kg every 4 days 3 times in total): remarkable antitumor activity
Body weight [2, 7]: 26 g
T/C (%) [2, 7]: 100%
Tumor growth rate (Rt) [2, 7]: 1.0
Body weight [2, 8]: 26 g
T/C (%) [2, 8]: 81%
Tumor growth rate (Rt) [2, 8]: 1.5
Body weight ([2]; multiple-dose group, 125 mg/kg i.v. days 8, 12, 16, day 15): 25 g
T/C (%) [2, 9]: 51%
Tumor growth rate (Rt) [2, 9]: 1.5
Body weight ([2]; multiple-dose group, 125 mg/kg i.v. days 8, 12, 16, day 19): 25 g
T/C (%) [2, 10]: 45%
Tumor growth rate (Rt) [2, 10]: 1.9
Body weight ([2]; multiple-dose group, 125 mg/kg i.v. days 8, 12, 16, day 22): 26 g
T/C (%) [2, 11]: 37%
Tumor growth rate (Rt) [2, 11]: 2.6
Body weight ([2]; multiple-dose group, 125 mg/kg i.v. days 8, 12, 16, day 26): 26 g
T/C (%) [2, 12]: 39%
Tumor growth rate (Rt) [2, 12]: 4.7
Body weight ([2]; multiple-dose group, 125 mg/kg i.v. days 8, 12, 16, day 29): 26 g
T/C (%) [2, 13]: 42%
Tumor growth rate (Rt) [2, 13]: 7.0
Body weight [2, 14]: 27 g
T/C (%) [2, 14]: 53%
Tumor growth rate (Rt) [2, 14]: 11
antitumor activity ([2]; once at a dose of 250 mg/kg): remarkable antitumor activity
Body weight [2, 15]: 25 g
T/C (%) [2, 15]: 100%
Tumor growth rate (Rt) [2, 15]: 1.0
Body weight ([2]; single-dose group, 250 mg/kg i.v. day 8, day 12): 24 g
T/C (%) [2, 16]: 65%
Tumor growth rate (Rt) [2, 16]: 1.2
Body weight ([2]; single-dose group, 250 mg/kg i.v. day 8, day 15): 25 g
T/C (%) [2, 17]: 45%
Tumor growth rate (Rt) [2, 17]: 1.3
Body weight ([2]; single-dose group, 250 mg/kg i.v. day 8, day 19): 25 g
T/C (%) [2, 18]: 46%
Tumor growth rate (Rt) [2, 18]: 2.0
Body weight ([2]; single-dose group, 250 mg/kg i.v. day 8, day 22): 26 g
T/C (%) [2, 19]: 34%
Tumor growth rate (Rt) [2, 19]: 2.4
Body weight ([2]; single-dose group, 250 mg/kg i.v. day 8, day 26): 26 g
T/C (%) [2, 20]: 39%
Tumor growth rate (Rt) [2, 20]: 4.7
Body weight ([2]; single-dose group, 250 mg/kg i.v. day 8, day 29): 26 g
T/C (%) [2, 21]: 39%
Tumor growth rate (Rt) [2, 21]: 6.6
Body weight ([2]; single-dose group, 250 mg/kg i.v. day 8, day 33): 27 g
T/C (%) [2, 22]: 45%
Tumor growth rate (Rt) [2, 22]: 9.5
